From BindingDB's records for doi:10.1021/jm00055a007 (Abbott Laboratories, 1993)
Square brackets hold non-standard residues; d marks the D form. Peptide text beside a SMILES is read from it. 1Nal = N[C@@H](Cc1cccc2ccccc12)C(=O)O; pGlu = O=C1CC[C@@H](C(=O)O)N1

molecular target: Gonadotropin-releasing hormone receptor (Rattus norvegicus) (UniProt P30969)
Sequence (P30969 whole entry, looked up): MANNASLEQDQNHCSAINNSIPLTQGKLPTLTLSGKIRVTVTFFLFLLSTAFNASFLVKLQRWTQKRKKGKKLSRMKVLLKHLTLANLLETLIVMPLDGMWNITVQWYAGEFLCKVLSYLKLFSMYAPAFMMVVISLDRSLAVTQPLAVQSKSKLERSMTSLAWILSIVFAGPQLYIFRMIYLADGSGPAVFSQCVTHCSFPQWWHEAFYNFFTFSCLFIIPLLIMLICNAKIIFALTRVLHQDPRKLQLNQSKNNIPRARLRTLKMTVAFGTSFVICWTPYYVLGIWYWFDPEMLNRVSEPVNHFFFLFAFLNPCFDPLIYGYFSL

Structure (SMILES)	Ki [nM]
CC(C)C[C@H](NC(=O)[C@@H](Cc1ccc2ccccc2c1)NC(=O)[C@H](Cc1ccc(O)cc1)NC(=O)[C@H](CO)NC(=O)[C@H](Cc1c[nH]c2ccccc12)NC(=O)[C@H](Cc1ccccc1)N(C)C(=O)[C@@H]1CCC(=O)N1)C(=O)N[C@@H](CCCN=C(N)N)C(=O)N1CCC[C@H]1C(=O)NCC(N)=O [nafarelin 2NMePhe]	0.3
CCNC(=O)[C@@H]1CCCN1C(=O)[C@H](CCCN=C(N)N)NC(=O)[C@H](CC(C)C)NC(=O)[C@@H](CC(C)C)NC(=O)[C@H](Cc1ccc(O)cc1)NC(=O)[C@H](CO)NC(=O)[C@H](Cc1cccc2ccccc12)NC(=O)[C@H](Cc1c[nH]cn1)NC(=O)[C@@H]1CCC(=O)N1 [leuprolide 31Nal] ([pGlu]H[1Nal]SY[dL]LRP-NHEt)	0.09
CC(C)C[C@H](NC(=O)[C@@H](Cc1ccc2ccccc2c1)NC(=O)[C@H](Cc1ccc(O)cc1)NC(=O)[C@H](CO)N(C)C(=O)[C@H](Cc1c[nH]c2ccccc12)NC(=O)[C@H](Cc1c[nH]cn1)NC(=O)[C@@H]1CCC(=O)N1)C(=O)N[C@@H](CCCN=C(N)N)C(=O)N1CCC[C@H]1C(=O)NCC(N)=O [nafarelin 4NMeSer]	0.04
CCNC(=O)[C@@H]1CCCN1C(=O)[C@H](CCCN=C(N)N)NC(=O)[C@H](CC(C)C)NC(=O)[C@@H](Cc1c[nH]c2ccccc12)NC(=O)[C@H](Cc1ccc(O)cc1)NC(=O)[C@H](CO)NC(=O)[C@H](Cc1cccc2ccccc12)NC(=O)[C@H](Cc1cnc[nH]1)NC(=O)[C@@H]1CCC(=O)N1 [deslorelin 31Nal]	0.02
CC(C)C[C@@H](C(=O)N[C@@H](CCCN=C(N)N)C(=O)N1CCC[C@H]1C(=O)NCC(N)=O)N(C)C(=O)[C@@H](Cc1ccc2ccccc2c1)NC(=O)[C@H](Cc1ccc(O)cc1)NC(=O)[C@H](CO)NC(=O)[C@H](Cc1c[nH]c2ccccc12)NC(=O)[C@H](Cc1c[nH]cn1)NC(=O)[C@@H]1CCC(=O)N1 [nafarelin 7NMeLeu]	0.03
CC(C)C[C@H](NC(=O)[C@@H](Cc1ccc2ccccc2c1)NC(=O)[C@H](Cc1ccc(O)cc1)NC(=O)[C@H](CO)NC(=O)[C@H](Cc1cccc2ccccc12)NC(=O)[C@H](Cc1cnc[nH]1)NC(=O)[C@@H]1CCC(=O)N1)C(=O)N[C@@H](CCCN=C(N)N)C(=O)N1CCC[C@H]1C(=O)NCC(N)=O [nafarelin 31Nal]	0.03
CCNC(=O)[C@@H]1CCCN1C(=O)[C@H](CCCN=C(N)N)NC(=O)[C@H](CC(C)C)NC(=O)[C@@H](CC(C)C)NC(=O)[C@H](Cc1ccc(O)cc1)NC(=O)[C@H](CO)NC(=O)[C@H](Cc1c[nH]c2ccccc12)NC(=O)[C@H](Cc1ccccc1)N(C)C(=O)[C@@H]1CCC(=O)N1 [leuprolide 2NMePhe]	12
CC(C)C[C@H](NC(=O)[C@@H](Cc1ccc2ccccc2c1)NC(=O)[C@H](Cc1ccc(O)cc1)NC(=O)[C@H](CO)NC(=O)[C@H](Cc1cccc2ccccc12)N(C)C(=O)[C@H](Cc1cnc[nH]1)NC(=O)[C@@H]1CCC(=O)N1)C(=O)N[C@@H](CCCN=C(N)N)C(=O)N1CCC[C@H]1C(=O)NCC(N)=O [nafarelin 3NMe1Nal]	0.74
CC(C)C[C@H](NC(=O)[C@@H](Cc1ccc2ccccc2c1)NC(=O)[C@H](Cc1ccc(O)cc1)NC(=O)[C@H](CO)NC(=O)[C@H](Cc1c[nH]c2ccccc12)NC(=O)[C@H](Cc1cnc[nH]1)N(C)C(=O)[C@@H]1CCC(=O)N1)C(=O)N[C@@H](CCCN=C(N)N)C(=O)N1CCC[C@H]1C(=O)NCC(N)=O [nafarelin 2NMeHis]	1.41
CCNC(=O)[C@@H]1CCCN1C(=O)[C@H](CCCN=C(N)N)NC(=O)[C@H](CC(C)C)NC(=O)[C@@H](Cc1c[nH]c2ccccc12)NC(=O)[C@H](Cc1ccc(O)cc1)N(C)C(=O)[C@H](CO)NC(=O)[C@H](Cc1c[nH]c2ccccc12)NC(=O)[C@H](Cc1c[nH]cn1)NC(=O)[C@@H]1CCC(=O)N1 [deslorelin 5NMeTyr]	0.09
